Experimental data from patent publication US7557100B2, “Antibacterial agents” (Pfizer Inc., priority 2005, dated 2009).
Converted amounts (≈) assume the structure as drawn.

Key:
[1] = system: Staphylococcus aureus SA-1 (UC-76); test: Microbroth dilution MIC testing against S. aureus; format: cell-based; conditions: S. aureus UC76, CAMHB, 35° C., 16 to 24 hours, read-out: Minimum Inhibitory Concentration S. aureus UC76
Protocol: (§1) In this example, the in vitro antibacterial activity of selected compounds was determined against S. aureus and H. influenzae. Except for clarifying or modifying statements, MIC testing followed procedures recommended by the NCCLS^1-2 or followed the descriptions cited below.
(§2) Bacterial Cultures At least the following organisms are included in the screen: Staphylococcus aureus SA-1 (UC-76) and H. influenzae HI-3542. Incubations were at 35° C. Stock bacterial cultures were maintained on Tryptic Soy Agar containing 5% Sheep Blood (BD, Becton Dickinson Microbiology Systems, Cockeysville, Md.), anaerobes were maintained on Anaerobic Blood Agar plates—CDC Formulation (BD), and fastidious organisms were maintained on Chocolate Agar II Plates (BD). Specific conditions of handling are listed below.
(§3) Standardized Organism Inocula Frozen stock cultures were used as the initial source of organisms for performing microbroth dilution MIC testing. Stock cultures were passed on their standard growth medium for at least 1 growth cycle (18 24 hours) prior to their use.
(§4) Most bacteria, unless otherwise noted, were prepared directly from agar plates in 10 mL aliquots of the appropriate broth medium. Bacterial cultures were adjusted to the opacity of a 0.5 McFarland Standard (optical density value of 0.28-0.33 on a Perkin-Elmer Lambda EZ150 Spectrophotometer Wellesley, Mass., set at a wavelength of 600 nm).). The adjusted cultures were diluted 400 fold (0.25 mL inoculum+100 mL broth) in growth media to produce a starting suspension of approximately 5×10^5 colony forming units (CFU)/mL. Unless otherwise noted, bacterial strains were tested in cation adjusted Mueller Hinton Broth (CAMHB).
(§5) Test Compound (“Drug”) Preparation Compounds were solubilized in DMSO. Drug stock solutions were prepared on the day of testing. Drugs were weight corrected for assay content where necessary.
(§6) Drug Dilution Tray Preparation Microbroth dilution stock plates were prepared in two dilution series, 64 to 0.06 μg drug/mL and 0.25 to 0.00025 μg drug/mL. For the high concentration series, 200 μL of stock solution (2 mg/mL) was added to duplicate rows of a 96-well microtiter plate. This was used as the first well in the dilution series. Serial two-fold decremental dilutions were made using a BioMek FX robot (Beckman Coulter Inc., Fullerton, Calif.) with 10 of the remaining 11 wells, each of which contained 100 μL of the appropriate solvent/diluent. Row 12 contained solvent/diluent only and served as the control. For tube one of the low concentration series, 200 μL of an 8 μg/mL stock was added to duplicate rows of a 96-well plate. Serial two-fold dilutions were made as described above.
(§7) Daughter plates were spotted (3.2 μL/well) from the stock plates listed above using the BioMek FX robot and were either used immediately or frozen at −70° C. until use.
(§8) Plate Inoculation Aerobic organisms were inoculated (100 μL volumes) into the thawed plates using the BioMek FX robot. The inoculated plates were placed in stacks of no more than 5 and covered with an empty plate. These plates were incubated 16 to 24 hours in ambient atmosphere according to CLSI guidelines^2.
(§9) Reading the Test After inoculation and incubation, the degree of bacterial growth was estimated visually with the aid of a Test Reading Mirror (Dynex Technologies 220 16) in a darkened room with a single light shining directly through the top of the microbroth tray. The MIC was the lowest concentration of drug that prevented macroscopically visible growth under the conditions of the test. Testing was performed in duplicate. When the MIC values in duplicate tests varied by 1 well (2 fold), the lower values were reported. If the MICs varied by 2 dilutions, the middle value was reported. Greater than this 4 fold variance called for the test to be repeated, after which a similar determination was applied to all values.

[2] = system: H. influenzae HI-3542; test: Microbroth dilution MIC testing against H. influenzae; format: cell-based; conditions: HI3542, H. influenzae 3542, Haemophilus Test Medium, 35° C., 16 to 24 hours, read-out: Minimum Inhibitory Concentration H. influenzae 3542
Protocol: as §1, §2
Haemophilus was maintained on Chocolate Agar II Plates at room temperature in a candle jar providing a 3 5% CO2 atmosphere.
as §3, §4
Haemophilus influenzae strains were grown on Chocolate Agar II Plates and tested in Haemophilus Test Medium (Remel, Lenexa, Kans.).
as §5, §6, §7, §8
as §9, with “Greater than this 4 fold variance called for the test to be repeated, after which a similar determination was applied to all values.” left out

COc1cnc(-c2cc3c(c(F)c2F)N2C[C@@H](C)O[C@@H](C)[C@@H]2C2(C3)C(=O)NC(=O)NC2=O)cn1 [Compound 25, (2R,4S,4aS)-9,10-difluoro-8-(5-methoxypyrazin-2-yl)-2,4-dimethyl-1,2,4,4a-tetrahydro-2′H,6H-spiro[1,4-oxazino[4,3-a]quinoline-5,5′-pyrimidine]-2′,4′,6′(1′H,3′H)-trione]
MIC [1]: 0.125 µg/mL (≈ 0.264 µM) | MIC [2]: 0.5 µg/mL (≈ 1.06 µM)

Cc1cnc(-c2cc3c(c(F)c2F)N2C[C@@H](C)O[C@@H](C)[C@@H]2C2(C3)C(=O)NC(=O)NC2=O)cn1 [Compound 23, (2R,4S,4aS)-9,10-difluoro-2,4-dimethyl-8-(5-methylpyrazin-2-yl)-1,2,4,4a-tetrahydro-2′H,6H-spiro[1,4-oxazino[4,3-a]quinoline-5,5′-pyrimidine]-2′,4′,6′(1′H,3′H)-trione]
MIC [1]: 0.125 µg/mL (≈ 0.273 µM) | MIC [2]: 1 µg/mL (≈ 2.19 µM)
